Assay results published in the NIST ThermoML archive (doi:10.1016/j.jct.2018.09.002).
± gives the expanded uncertainty stated by the source.

How the values were obtained:
[1] = Liquid; for vapor or sublimation pressure: Ebulliometric method (Recirculating still); for Normal boiling temperature: Distillation
[2] = refractive index (Na D-line) (dimensionless); conditions: 101.33 kPa, Liquid, Standard Abbe refractometry

With `Cc1cccc(O)c1` [3-methylphenol] the “vapor or sublimation pressure” value ([1]; 422.25 K) was 20 ± 1.5 kPa.

For `Cc1ccc(O)cc1` [4-methylphenol], the refractive index ([2]; 303.15 K) was 1.5295 ± 0.0005, the refractive index ([2]; 308.15 K) was 1.5288 ± 0.0005 and the “vapor or sublimation pressure” value ([1]; 421.95 K) was 20 ± 1.5 kPa. It also gave a Normal boiling temperature [1] of 201.70 ± 2.2 °C.

In the case of `OCCNCCO` [diethanolamine], the refractive index ([2]; 298.15 K) is reported as 1.4762 ± 0.0005, the refractive index ([2]; 303.15 K) is reported as 1.4751 ± 0.0005 and the “vapor or sublimation pressure” value ([1]; 489.08 K) is reported as 20 ± 1.5 kPa. The Normal boiling temperature [1] was 269.31 ± 2.2 °C.
